Measurements as given in US20040209897A1 (Pharmacia Corporation, priority 2002, published 2004).
Structures can show the parent of a compound that is named as a salt.

Target: Recombinant MAPKAPK2 (MK-2) (Homo sapiens, UniProt P49137)
Assay: Determination of MK-2 IC50 (HSP-peptide phosphorylation, anion exchange resin capture assay)
Assay type: biochemical
Method: The phosphorylation of HSP-peptide ([sequence]) by MAPKAPK2 was measured using an anion exchange resin capture assay method. […] The reaction was terminated and [γ^33P]ATP was removed from solution by the addition of 150 μl of AG 1×8 ion exchange resin in 900 mM sodium formate pH 3.0. A 50 μl aliquot of head volume was removed from the quenched reaction mixture and added to a 96-well plate, 150 μl of Microscint-40 (Packard) was added and the amount of phosphorylated-peptide was determined.
Compounds are evaluated as potential inhibitors of the MK2 kinase by measuring their effects on MK2 phosphorylation of the peptide substrate. Compounds may be screened initially at two concentrations prior to determination of IC50 values. Screening results are expressed as percent inhibition at the concentrations of compound tested. For IC50 value determinations, compounds are tested at six concentrations in ten-fold serial dilutions with each concentration tested in triplicate. Results are expressed as IC50 values in micromolar. The assay is performed at a final concentration of 2% DMSO.

Sequence of Recombinant MAPKAPK2 (MK-2) (P49137 whole entry, species assumed): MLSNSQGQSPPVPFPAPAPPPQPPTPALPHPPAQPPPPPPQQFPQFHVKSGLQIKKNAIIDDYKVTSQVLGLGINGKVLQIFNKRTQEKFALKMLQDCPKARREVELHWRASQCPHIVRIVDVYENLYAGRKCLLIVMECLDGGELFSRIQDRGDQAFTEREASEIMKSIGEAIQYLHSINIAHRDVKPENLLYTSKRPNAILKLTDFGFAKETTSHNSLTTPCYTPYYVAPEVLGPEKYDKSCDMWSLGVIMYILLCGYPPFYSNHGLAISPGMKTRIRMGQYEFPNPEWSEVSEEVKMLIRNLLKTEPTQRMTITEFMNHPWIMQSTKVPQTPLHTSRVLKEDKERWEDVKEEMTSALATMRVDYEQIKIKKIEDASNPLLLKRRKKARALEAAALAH

Row | Compound | IC50 (MAPKAP2 Avg. IC50) [nM] | further results
1 | O=C1NCCc2[nH]c(-c3ccnc(/C=C/c4cc(F)ccc4F)c3)cc21 [Example 196, trifluoroacetate] | 33.6 | –
2 | CN(C)C/C=C/C(=O)NCc1cccc(-c2cc(-c3cc4c([nH]3)CCNC4=O)ccn2)c1 [Example 465] | 118 | –
3 | O=C1NCCc2[nH]c(-c3ccnc(/C=C\c4cc5ccccc5s4)c3)cc21 [Example 623, trifluoroacetate] | 442 | –
4 | CCN(CC)c1ccccc1/C=C/c1cc(-c2cc3c([nH]2)CCNC3=O)ccn1 [Example 762, trifluoroacetate] | 5770 | –
5 | O=C1NCCc2[nH]c(-c3ccnc(/C=C/c4ccc(N5CCOCC5)c(F)c4)c3)cc21 [Example 156, trifluoroacetate] | 28.1 | –
6 | O=C1NCCc2[nH]c(-c3ccnc(/C=C/c4c(F)c(F)c(F)c(F)c4F)c3)cc21 [Example 563, trifluoroacetate] | 245 | –
7 | Cc1cncc(-c2cc(-c3cc4c([nH]3)CCNC4=O)ccn2)c1 [Example 111, trifluoroacetate] | 22.5 | –
8 | CC(C)c1ccccc1/C=C/c1cc(-c2cc3c([nH]2)CCNC3=O)ccn1 [Example 599, trifluoroacetate] | 342 | –
9 | O=C(O)/C=C\C(=O)NCc1cccc(-c2cc(-c3cc4c([nH]3)CCNC4=O)ccn2)c1 [Example 369, trifluoroacetate] | 76 | –
10 | O=C1NCCc2[nH]c(-c3ccnc(/C=C/c4cc5ccccc5o4)c3)cc21 [Example 494] | 134 | –
11 | O=C1NCCc2[nH]c(-c3ccnc(/C=C/c4ccccc4N4CCCCC4)c3)cc21 [Example 671, trifluoroacetate] | 820 | –
12 | O=C1NCCc2[nH]c(-c3ccnc(/C=C(/F)c4ccccc4)c3)cc21 [Example 497, trifluoroacetate] | 136 | –
13 | O=C1NCCc2[nH]c(-c3ccnc(/C=C/c4c(Cl)cccc4N4CCOCC4)c3)cc21 [Example 715, trifluoroacetate] | 1800 | –
14 | CC(C)c1cccc(-c2cc(-c3cc4c([nH]3)CCNC4=O)ccn2)c1 [Example 119, trifluoroacetate] | 23.7 | –
15 | O=C1NCCc2[nH]c(-c3ccnc(/C=C/c4ccccc4C4CCCCC4)c3)cc21 [Example 694, trifluoroacetate] | 1150 | –
16 | CC(=NO)c1ccc(-c2cc(-c3cc4c([nH]3)CCNC4=O)ccn2)cc1 [Example 349, trifluoroacetate] | 66.7 | –
17 | O=C1NCCc2[nH]c(-c3ccnc(/C=C\c4ccc(F)c(F)c4)c3)cc21 [Example 687, trifluoroacetate] | 1080 | –
18 | O=C1NCCc2[nH]c(-c3cc(F)nc(-c4ccccc4F)c3)cc21 [Example 802, 2-[2-fluoro-6-(2-fluorophenyl)pyridin-4-yl]-1,5,6,7-tetrahydro-4H-pyrrolo[3,2-c]pyridin-4-one trifluoroacetate] | – | IC50 (MAPKAP2 Avg. IC50, MK-2 inhibiting activity, Table I): 20000 nM
19 | CCc1cccc(-c2cc(-c3cc4c([nH]3)CCNC4=O)ccn2)c1 [Example 272, trifluoroacetate] | 49.3 | –
20 | O=C(CBr)Nc1cccc(-c2cc(-c3cc4c([nH]3)CCNC4=O)ccn2)c1 [Example 271, trifluoroacetate] | – | kind of MK-2 inhibition (irreversible): irreversible inhibitors
21 | O=C1NCCc2[nH]c(-c3ccnc(-c4ccc(OCC(O)CN5CCC[C@@H]5CN5CCCC5)cc4)c3)cc21 (stereo partly drawn) [Example 508, 2-[2-(4-{2-hydroxy-3-[(2R)-2-(pyrrolidin-1-ylmethyl)pyrrolidin-1-yl]propoxy}phenyl)pyridin-4-yl]-1,5,6,7-tetrahydro-4H-pyrrolo[3,2-c]pyridin-4-one trifluoroacetate] | 149 | –
22 | C=CC(=O)NCc1cccc(-c2cc(-c3cc4c([nH]3)CCNC4=O)ccn2)c1 [Example 351, hydrochloride] | 69.2 | –
23 | CN(C)C/C=C/C(=O)Nc1cccc(-c2cc(-c3cc4c([nH]3)CCNC4=O)ccn2)c1 [Example 338, trifluoroacetate] | 64.8 | –
24 | O=C1NC(C2CC2)Cc2[nH]c(-c3ccnc(-c4cccc(NC(=O)C5CCCC5)c4)c3)cc21 (stereo not shown) [Example 634, trifluoroacetate] | 509 | –
25 | O=Cc1cccc(-c2cc(-c3cc4c([nH]3)CCNC4=O)ccn2)c1 [Example 204, trifluoroacetate] | 35.5 | –
26 | N/N=C(\c1ccccc1)c1cc(-c2cc3c([nH]2)CCNC3=O)ccn1 [Example 786, 2-{2-[(E)-hydrazono(phenyl)methyl]pyridin-4-yl}-1,5,6,7-tetrahydro-4H-pyrrolo[3,2-c]pyridin-4-one trifluoroacetate] | 14300 | –
27 | O=C1NCCc2cc(-c3cc(-c4cc5c([nH]4)CCNC5=O)ccn3)ccc21 [Example 161, trifluoroacetate] | 28.6 | –

More lines, main results first:

Row | IC50 (MAPKAP2 Avg. IC50) [nM] | Compound | further results
28 | 149 | O=C1NCCc2[nH]c(-c3cc(-c4ccc(Oc5ccccc5)cc4)ncc3F)cc21 [Example 509, 2-[5-fluoro-2-(4-phenoxyphenyl)pyridin-4-yl]-1,5,6,7-tetrahydro-4H-pyrrolo[3,2-c]pyridin-4-one trifluoroacetate] | –
29 | 562 | O=C1NCCc2[nH]c(-c3ccnc(/C=C/c4ccc(-c5ccccc5)cc4)c3)cc21 [Example 639, trifluoroacetate] | –
30 | 101 | CCc1ccc(-c2cc(-c3cc4c([nH]3)CCNC4=O)ccn2)cc1 [Example 434, trifluoroacetate] | –
31 | 16 | O=C1NCCc2[nH]c(-c3ccnc(/C=C/c4c(F)cccc4F)c3)cc21 [Example 59, trifluoroacetate] | –
32 | 133 | CC(C)=NNc1cc(-c2cc3c([nH]2)CCNC3=O)ccn1 [Example 491] | –
33 | 51.1 | CC(=O)OCC(=O)Nc1cccc(-c2cc(-c3cc4c([nH]3)CCNC4=O)ccn2)c1 [Example 279, trifluoroacetate] | –
34 | 16.4 | O=C1NCCc2[nH]c(-c3ccnc(-c4ccc5c(c4)OC=CO5)c3)cc21 [Example 62, trifluoroacetate] | –
35 | 29.5 | O=C1NCCc2[nH]c(-c3ccnc(-c4ccc(C(=O)C5CC5)cc4)c3)cc21 [Example 167, trifluoroacetate] | –
36 | 171 | O=C1NCCc2[nH]c(-c3ccnc(/C=C/c4ccccc4N4CCOCC4)c3)cc21 [Example 529, 2-{2-[(E)-2-(2-morpholin-4-ylphenyl)vinyl]pyridin-4-yl}-1,5,6,7-tetrahydro-4H-pyrrolo[3,2-c]pyridin-4-one trifluoroacetate] | –
37 | 1810 | COCCN(C)c1ccccc1/C=C/c1cc(-c2cc3c([nH]2)CCNC3=O)ccn1 [Example 716, trifluoroacetate] | –
38 | 4910 | CN(N)c1cc(-c2cc3c([nH]2)CCNC3=O)ccn1 [Example 756, 2-[2-(1-methylhydrazino)pyridin-4-yl]-1,5,6,7-tetrahydro-4H-pyrrolo[3,2-c]pyridin-4-one] | –
39 | 4130 | Cn1c(-c2ccnc(-c3cnc4ccccc4c3)c2)cc2c1CCNC2=O [Example 750, 1-methyl-2-(2-quinolin-3-ylpyridin-4-yl)-1,5,6,7-tetrahydro-4H-pyrrolo[3,2-c]pyridin-4-one] | –
40 | 65.9 | O=C(CCl)NCc1cccc(-c2cc(-c3cc4c([nH]3)CCNC4=O)ccn2)c1 [Example 344, trifluoroacetate] | –
41 | 99.3 | Nc1cccc(-c2cc(-c3cc4c([nH]3)CCNC4=O)ccn2)c1 [Example 431, trifluoroacetate] | –
42 | 145 | CC1CNC(=O)c2cc(-c3ccnc(-c4ccccc4F)c3)[nH]c21 (stereo not shown) [Example 505] | –
43 | 3330 | O=C1NCCc2[nH]c(-c3ccnc(/C=C\c4cccnc4)c3)cc21 [Example 747, trifluoroacetate] | –
44 | 92.3 | CON=C(C)c1ccc(-c2cc(-c3cc4c([nH]3)CCNC4=O)ccn2)cc1 [Example 415] | –

Row | IC50 (MAPKAP2 Avg. IC50) [nM] | Compound | further results
45 | 73.8 | COC(=O)N1CC(c2cc(-c3cc4c([nH]3)CCNC4=O)ccn2)=Cc2ccccc21 [Example 362, trifluoroacetate] | –
46 | 23.9 | O=C(NCC(F)(F)F)c1ccc(-c2cc(-c3cc4c([nH]3)CCNC4=O)ccn2)cc1 [Example 121, trifluoroacetate] | –
47 | 51.2 | CC(=O)c1ccc(-c2cc(-c3cc4c([nH]3)CCNC4=O)ccn2)cc1 [Example 280, trifluoroacetate] | –
48 | 16.4 | O=C1NCCc2[nH]c(-c3ccnc(-c4ccc(N5CCOCC5)nc4)c3)cc21 [Example 63, trifluoroacetate] | –
49 | 19.5 | CC(C)C(=O)Nc1ccc(-c2cc(-c3cc4c([nH]3)CCNC4=O)ccn2)cc1 [Example 88, trifluoroacetate] | –
50 | 87.7 | O=C(/C=C/c1ccccc1)Nc1ccc(-c2cc(-c3cc4c([nH]3)CCNC4=O)ccn2)cc1 [Example 403, trifluoroacetate] | –
51 | 9.2 | O=C1NCCc2[nH]c(-c3ccnc(-c4ccc5cc(O)ccc5c4)c3)cc21 [Example 17] | –
52 | 25.7 | CC(=NO)c1cccc(-c2cc(-c3cc4c([nH]3)CCNC4=O)ccn2)c1 [Example 134, bis(trifluoroacetate)] | –
53 | 279 | Cc1cccc(/C=C/c2cc(-c3cc4c([nH]3)CCNC4=O)ccn2)c1C [Example 577, trifluoroacetate] | –
54 | 41.8 | CC(C)Cc1cncc(-c2cc(-c3cc4c([nH]3)CCNC4=O)ccn2)c1 [Example 243, trifluoroacetate] | –
55 | 18.3 | O=C1NCCc2[nH]c(-c3ccnc(/C=C/c4cccnc4)c3)cc21 [Example 78, trifluoroacetate] | –
56 | 10.1 | O=C(O)c1ccc(-c2cc(-c3cc4c([nH]3)CCNC4=O)c(F)cn2)cc1 [Example 28] | –
57 | 66.1 | O=C1NCCc2[nH]c(-c3ccnc(-c4ccc(CCc5ccc(F)cc5)nc4)c3)cc21 [Example 345, trifluoroacetate] | –
58 | 2330 | C=CC(=O)N(CCNC(=O)OC(C)(C)C)c1ccc(-c2cc(-c3cc4c([nH]3)CCNC4=O)ccn2)cn1 [Example 732, trifluoroacetate] | –
59 | 937 | O=C1NCCc2[nH]c(-c3ccc(O)c(-c4cnc5ccccc5c4)c3)cc21 [Example 676] | –
60 | 29.6 | COc1ccc(/C=C/c2cc(-c3cc4c([nH]3)CCNC4=O)ccn2)cc1 [Example 170, trifluoroacetate] | –
61 | 295 | O=C1NCCc2[nH]c(-c3ccnc(/C=C/c4cccc(Oc5ccccc5)c4)c3)cc21 [Example 581, trifluoroacetate] | –
